Measurements taken from patent publication US20030013660A1, “Dioxolane analogs for improved inter-cellular delivery” (Shire BioChem Inc., priority 2000, published 2003).

Experiments:
Assay in all cases: 3H-TdR incorporation at 72 hr (24 hr drug exposure, wash, 48 hr)
[1] = tested on: CEM/dCK-; type: cell-based; conditions: for IC50: Homo sapiens, CCRF-CEM, read-out: IC50 in μM (3H-TdR incorporation at 72 hr) CEM/dCK- 24 h, CCRF-CEM deoxycytidine kinase-deficient, 24 h drug exposure, 72 hr assay; for Factor* (Resistance Factor = Ratio of dCK- on Wild-type CCRF-CEM): ratio of IC50 CEM/dCK- to IC50 CCRF-CEM
Procedure: (§1) Exposition of 24 hr to drug, wash, incubated for another 48 hr (total of 72 hr assay)
(§2) (3H-Thymidine Incorporation Assay)

[2] = tested on: CCRF-CEM; type: cell-based; conditions: Homo sapiens, CCRF-CEM, read-out: IC50 in μM (3H-TdR incorporation at 72 hr) CCRF-CEM 24 h, CCRF-CEM T-cell Leukemia, 72 hr assay
Procedure: as §1, §2

[3] = tested on: SF-268; type: cell-based, Human; conditions: Homo sapiens, SF-268, read-out: IC50 in μM (3H-TdR incorporation at 72 hr) SF-268 24 h, SF-268 Human Central Nervous System Tumor; 24 h drug exposure, 72 hr assay
Procedure: as §1, §2

[4] = tested on: MCF-7; type: cell-based, Human; conditions: Homo sapiens, MCF7, read-out: IC50 in μM (3H-TdR incorporation at 72 hr) MCF-7 24 h, MCF-7 Human Breast Carcinoma, 72 hr assay
Procedure: as §1, §2

[5] = tested on: H-460; type: cell-based, Human; conditions: Homo sapiens, NCI-H460, read-out: IC50 in μM (3H-TdR incorporation at 72 hr) H-460 24 h, H-460 Human Lung Carcinoma, 72 hr assay
Procedure: as §1, §2

| Structure (SMILES) | IC50 [1] [µM] | IC50 [2] [µM] | IC50 [3] [µM] | IC50 [4] [µM] | IC50 [5] [µM] | Factor* (Resistance Factor = Ratio of dCK- on Wild-type CCRF-CEM) [1] |
| --- | --- | --- | --- | --- | --- | --- |
| CCOC(OCC)(OCC)OC[C@H]1OC[C@@H](n2ccc(N)nc2=O)O1 [Compound 199, 4-Amino-1-(2-triethoxymethoxymethyl-[1,3]dioxolan-4-yl)-1H-pyrimidin-2-one] | > 100 | 0.0094 | 0.0078 | 0.21 | 0.033 | >10638 |
| O=C(Nc1ccn([C@@H]2CO[C@H](CO)O2)c(=O)n1)C1(c2ccccc2)CCCCC1 [Compound 225, 1-PHENYL- CYCLOHEXANECARBOXYLIC ACID [1-(2- HYDROXYMETHYL- [1,3]DIOXOLAN-4-YL)-2- OXO-1,2-DIHYDRO- PYRIMIDIN-4-YL]-AMIDE] | > 100 | 0.88 | 43 | 11 | 11 | >113 |
| C/C(=N\c1ccn([C@@H]2CO[C@H](CO)O2)c(=O)n1)N(C)C [Compound 228, N′-[1-(2-HYDROXYMETHYL- [1,3]DIOXOLAN-4-YL)-2- OXO-1,2-DIHYDRO- PYRIMIDIN-4-YL]-N,N- DIMETHYL-ACETAMIDINE] | > 100 | 0.44 | 5.3 | 1.5 | 0.68 | >227 |
| CC(C)N(/C=N/c1ccn([C@@H]2CO[C@H](CO)O2)c(=O)n1)C(C)C [Compound 230, N′-[1-(2-HYDROXYMETHYL- [1,3]DIOXOLAN-4-YL)-2- OXO-1,2-DIHYDRO- PYRIMIDIN-4-YL]-N,N- DIISOPROPYL-FORMAMIDINE] | > 100 | 1 | 9.5 | 3.8 | 1.5 | >100 |
| Cc1ccc(C)c(OCCCC(C)(C)C(=O)Nc2ccn([C@@H]3CO[C@H](CO)O3)c(=O)n2)c1 [Compound 234, 5-(2,5-DIMETHYL- PHENOXY)-2,2-DIMETHYL- PENTANOIC ACID [1-(2- HYDROXYMETHYL- [1,3]DIOXOLAN-4-YL)-2- OXO-1,2-DIHYDRO- PYRIMIDIN-4-YL]-AMIDE] | > 100 | 0.95 | 0.1 | 0.1 | 1.5 | >105 |
| C[C@H]1CC[C@@](C)(C(=O)Nc2ccn([C@@H]3CO[C@H](CO)O3)c(=O)n2)C1(C)C [Compound 235, 1,2,2,3-TETRAMETHYL- CYCLOPENTANECARBOXYLIC ACID [1-(2- HYDROXYMETHYL- [1,3]DIOXOLAN-4-YL)-2- OXO-1,2-DIHYDRO- PYRIMIDIN-4-YL]-AMIDE] | 61 | 1.2 | 0.38 | 1.1 | 1.6 | 51 |
| CCCCC[C@H]1CC[C@H](C(=O)OC[C@H]2OC[C@@H](n3ccc(N)nc3=O)O2)CC1 [Compound 240, 4-PENTYL- CYCLOHEXANECARBOXYLIC ACID 4-(4-AMINO-2-OXO- 2H-PYRIMIDIN-1-YL)- [1,3]DIOXOLAN-2-YL METHYL ESTER] | 2.5 | ≤ 0.0001 | ≤ 0.0001 | ≤ 0.0001 | ≤ 0.0001 | ≧25000 |

Further lines, with some results ahead:

| IC50 [1] [µM] | IC50 [2] [µM] | IC50 [3] [µM] | IC50 [4] [µM] | IC50 [5] [µM] | Structure (SMILES) | Factor* (Resistance Factor = Ratio of dCK- on Wild-type CCRF-CEM) [1] |
| --- | --- | --- | --- | --- | --- | --- |
| > 100 | 0.064 | 1.5 | 1.9 | 1.1 | COc1ccc(C(OC)(OC)OC[C@H]2OC[C@@H](n3ccc(N)nc3=O)O2)cc1 [Compound 195, 4-AMINO-1-{2- [DIMETHOXY-(4-METHOXY- PHENYL)-METHOXYMETHYL]- [1,3]DIOXOLAN-4-YL}- 1#H!-PYRIMIDIN-2-ONE] | >1563 |
| 72 | 0.31 | 0.12 | 1.1 | 0.3 | COC(OC)(OC[C@H]1OC[C@@H](n2ccc(N)nc2=O)O1)c1ccc(C)cc1 [Compound 200, 4-AMINO-1-[2- (DIMETHOXY-#P!-TOLYL- METHOXYMETHYL)- [1,3]DIOXOLAN-4-YL]- 1#H!-PYRIMIDIN-2-ONE] | 232 |
| > 100 | 14 | 7.3 | 18 | 17 | CCOC(=O)/C=C/OC[C@H]1OC[C@@H](n2ccc(N)nc2=O)O1 [Compound 201, 3-[4-(4-AMINO-2-OXO-2H- PYRIMIDIN-1-YL)- [1,3]DIOXOLAN-2-YL METHOXY]-ACRYLIC ACID ETHYL ESTER] | >7 |
| > 100 | 0.26 | 0.1 | 0.9 | 0.28 | Nc1ccn([C@@H]2CO[C@H](COC(=S)Sc3ccccc3)O2)c(=O)n1 [Compound 205, DITHIOCARBONIC ACID O- [4-(4-AMINO-2-OXO-2H- PYRIMIDIN-1-YL)- [1,3]DIOXOLAN-2-YL METHYL] ESTER S-PHENYL ESTER] | >385 |
| 80 | 0.009 | 0.043 | 0.056 | 0.012 | Nc1ccn([C@@H]2CO[C@H](COC(=O)c3ccccc3Cl)O2)c(=O)n1 [Compound 206, 2-CHLORO-BENZOIC ACID 4-(4-AMINO-2-OXO-2#H!- PYRIMIDIN-1-YL)- [1,3]DIOXOLAN-2-YL METHYL ESTER] | 8,889 |
| > 100 | 0.0035 | 0.042 | 0.029 | 0.0034 | Nc1ccn([C@@H]2CO[C@H](COC(=O)c3ccccc3Cc3ccccc3)O2)c(=O)n1 [Compound 220, BIPHENYL-2-CARBOXYLIC ACID 4-(4-AMINO-2-OXO- 2H-PYRIMIDIN-1-YL)- [1,3]DIOXOLAN-2-YL METHYL ESTER] | >28571 |
| 22 | 0.043 | 3 | 0.012 | 0.84 | CC(C)(CCCCCCc1ccccc1)C(=O)Nc1ccn([C@@H]2CO[C@H](CO)O2)c(=O)n1 [Compound 227, 2,2-DIMETHYL-8-PHENYL- OCTANOIC ACID [1-(2- HYDROXYMETHYL- [1,3]DIOXOLAN-4-YL)-2- OXO-1,2-DIHYDRO- PYRIMIDIN-4-YL]-AMIDE] | 512 |
| 59 | 0.0025 | 0.025 | ≤ 0.0001 | 0.00045 | CC(C)(CCCCCCc1ccccc1)C(=O)OC[C@H]1OC[C@@H](n2ccc(N)nc2=O)O1 [Compound 238, 2,2-DIMETHYL-8-PHENYL- OCTANOIC ACID 4-(4- AMINO-2-OXO-2H- PYRIMIDIN-1-YL)- [1,3]DIOXOLAN-2-YL METHYL ESTER] | 23,600 |
| ≥ 100 | 1.4 | 14 | 0.17 | 0.047 | O=C(Nc1ccn([C@@H]2CO[C@H](CO)O2)c(=O)n1)C(c1ccccc1)c1ccccc1 [Compound 241, N-[1-(2-HYDROXYMETHYL- [1,3]DIOXOLAN-4-YL)-2- OXO-1,2-DIHYDRO- PYRIMIDIN-4-YL]-2,2- DIPHENYL-ACETAMIDE] | ≧74 |
